Source: US9364496B2 (ONCOGENEX TECHNOLOGIES INC., priority 2013, dated 2016)
Values joined by “and” are separate entries in the source; they are usually repeats but may differ in a detail not shown here. Identical values can stand only once. “Also recorded” adds a separate entry of the source. Oligonucleotides are written 5' to 3', each unit as a sugar letter and its base; * is a phosphorothioate linkage, no mark a phosphodiester; rarer units and linkages stand in square brackets, end groups in braces. Plain capitals give the bases only. e = 2'-O-(2-methoxyethyl) (MOE); [5mC] = 5-methylcytosine; d = 2'-deoxy (DNA)

Columns and labels:
[1] = test system: RPMI 8226 (human myeloma) xenograft; experiment: In vivo activity of custirsen with Velcade, RPMI 8226 xenograft (Example 14); conditions: for weight / Δ weight / volume / Δ volume / % of baseline / Δ %: later day (day not given); for volume / Δ volume: tumor; for % of baseline / Δ %: weight
Experimental: The cells were implanted subcutaneously into female SCID mice with 7×10^6 cells inoculum.
Tumors and body weights were measured weekly until termination of the study on day 71. Response to treatment was evaluated for tumor growth inhibition (TGI) and tumor growth delay (TGD).
70 CB.17 SCID female mice, 4-6 weeks old, 16-20 grams, obtained from Harlan animal breeding center.
Sample from the cell suspension was taken for counting (0.3 ml in duplicates for CEDEX) before spun down. Cell viability was 85.6% and live cell concentration was 167×10^5 cells/ml. The pellet was resuspended in HBSS to a final volume of 8 ml.
Tumors were implanted subcutaneously with RPMI-8226 cells into the right flank of the mouse on Day 0. Each animal received a s.c. injection 7×10^6 cells in 0.1 ml suspension. On day 20, mice were sorted by the optimal tumor volume ([…]) and were allocated into 5 groups of 10 mice. Mice were individually tagged and their tumor volume and body weight were monitored weekly during the study. Tumor size was measured by caliper and calculated using the formula: […]
The treatment started on […] (0.2 ml per 20 grams v/w) and continued till day 52, after which the remaining mice were left for observation until day 71.

[2] = Phase I healthy volunteer study TV1011-DDI-102, 640 mg custirsen; type: in vivo
Text: Three subjects withdrew from the study due to these constitutional symptoms.

[3] = test system: lung cancer; type: in vivo, human; conditions: each group; loading doses then custirsen with a chemotherapeutic agent
Text: At least 50 lung cancer patients are separated into two groups.

[4] = test system: bladder cancer; type: in vivo, human; conditions: each group; loading doses then custirsen with a chemotherapeutic agent
Text: At least 50 bladder cancer patients are separated into two groups.

[5] = test system: breast cancer; type: in vivo, human; conditions: each group; loading doses then custirsen with a chemotherapeutic agent
Text: At least 50 breast cancer patients are separated into two groups.

[6] = in vivo
[7] = in vivo; remark: listed apart in the source
[8] = in vivo; remark: listed apart in the source
[9] = OGX 40 ip qd*5, twk, group Mean, n 10
[10] = OGX 40 ip qd*5, twk, group Mean, n 10, vs Day 20
[11] = OGX 40 ip qd*5, twk, individual mouse, listed as OGX
[12] = OGX 40 ip qd*5, twk, individual mouse, vs Day 20, listed as OGX
[13] = OGX 40 ip qd*5, twk, group mean

Custirsen: anti-clusterin antisense oligonucleotide CAGCAGCAGAGTCTTCATCAT, phosphorothioate backbone, 2′-O-methoxyethyl at nucleotides 1-4 and 18-21, 5-methylcytosines at 1, 4, 19 (antisense e[5mC]*eA*eG*e[5mC]*dA*dG*dC*dA*dG*dA*dG*dT*dC*dT*dT*dC*dA*eT*e[5mC]*eA*eT; listed as Homo sapiens)
Day 27 volume [1, 9]: 219.2
Day 27 weight [1, 9]: 19.0
Day 34 % of baseline (weight) [1, 9]: 95.3%
Day 34 volume [1, 9]: 263.1
Day 34 weight [1, 9]: 17.7
Day 27 Δ % (weight) [1, 10]: 2.6%
Day 27 Δ volume [1, 10]: 76.4
Day 27 Δ weight [1, 10]: 0.4
Day 34 Δ % (weight) [1, 10]: −4.7%
Day 34 Δ volume [1, 10]: 120.3
Day 34 Δ weight [1, 10]: −0.8
Day 20 volume [1, 11]: 119 and 124 and 125 and 139 and 141 and 145 and 151 and 155 and 162 and 169
Day 20 weight [1, 11]: 16.1 and 17.7 and 17.1 and 20.6 and 19.7 and 18.6 and 18.4 (2×) and 20.0 and 18.9
Day 27 % of baseline (weight) [1, 11]: 113.2% and 102.5% and 100.3% and 98.7% and 102.4% and 101.7% and 100.5%
Day 27 volume [1, 11]: 96 and 207 and 171 and 249 and 222 and 246 and 319 and 193 and 217 and 271
Day 27 weight [1, 11]: 18.2 (2×) and 18.0 and 20.8 and 19.7 and 18.4 and 18.9 and 20.3 and 18.6 and 19.0
Day 34 % of baseline (weight) [1, 11]: 84.3% and 98.1% and 99.6% and 94.5% and 97.3% and 96.5% and 98.9% and 95.3% and 93.3% and 95.4%
Day 34 volume [1, 11]: 98 and 244 and 223 and 257 and 305 and 336 and 371 and 220 and 266 and 312
Day 34 weight [1, 11]: 13.5 and 17.4 and 17.1 and 19.5 and 19.1 and 18.0 (2×) and 18.2 and 19.0 and 17.2
Day 41 % of baseline (weight) [1, 11]: 100.4% and 100.3% and 99.5% and 95.8% and 100.1% and 104.4% and 101.6%
Day 41 volume [1, 11]: 454 and 474 and 560 and 267 and 320 and 457 and 410 and 295 and 322
Day 41 weight [1, 11]: 19.8 and 18.7 and 19.5 and 19.9 and 17.6 and 18.9 and 18.8 and 17.9 and 20.9
Day 45 % of baseline (weight) [1, 11]: 104.1% and 102.7% and 111.4% and 101.5% and 108.1% and 109.8%
Day 45 volume [1, 11]: 587 and 584 and 826 and 467 and 428 and 490 and 511 and 272 and 579
Day 45 weight [1, 11]: 20.5 and 19.1 (2×) and 20.6 and 21.1 and 18.7 and 19.2 and 18.8 and 21.9
Day 27 Δ % (weight) [1, 12]: 13.2% and 2.5% and 4.8% and 1.1% and 0.3% and −1.3% and 2.4% and 1.7% and 0.8% and 0.5%
Day 27 Δ volume [1, 12]: −23.1 and 84.0 and 46.2 and 110.4 and 81.2 and 100.3 and 168.8 and 38.8 and 55.3 and 102.6
Day 27 Δ weight [1, 12]: 2.1 and 0.4 (2×) and 0.8 and 0.2 (2×) and 0.1 (2×) and −0.3 and 0.3
Day 34 Δ % (weight) [1, 12]: −15.7% and −1.9% and −0.4% and −5.5% and −2.7% and −3.5% and −1.1% and −4.7% and −6.7% and −4.6%
Day 34 Δ volume [1, 12]: −20.6 and 120.3 and 97.9 and 117.8 and 163.9 and 190.8 and 219.9 and 65.4 and 104.3 and 142.9
Day 34 Δ weight [1, 12]: −2.5 and −0.3 and −0.1 and −1.1 and −0.5 and −0.6 and −0.2 and −0.9 (2×) and −1.2
Day 41 Δ % (weight) [1, 12]: 0.4% and 0.3% and 5.9% and −0.5% and −4.2% and 0.1% and 6.0% and 4.4% and 1.6%
Day 41 Δ volume [1, 12]: 313.0 and 328.4 and 409.6 and 112.3 and 157.8 and 288.2 and 286.2 and 170.4 and 183.5
Day 41 Δ weight [1, 12]: 0.1 (2×) and 1.1 (2×) and −0.1 and −0.8 and 0.0 and 0.8 and 0.3
Day 45 Δ % (weight) [1, 12]: 4.1% and 2.7% and 11.4% and 5.6% and 1.5% and 1.3% and 8.1% and 9.8% and 6.1%
Day 45 Δ volume [1, 12]: 446.1 and 439.0 and 675.2 and 313.0 and 266.0 and 321.7 and 388.0 and 147.2 and 440.5
Day 45 Δ weight [1, 12]: 0.8 and 0.5 and 2.1 and 1.1 and 0.3 and 0.2 and 1.4 and 1.7 and 1.3
weight [1, 13]: 20.5
Δ weight [1, 13]: 1.6
volume [1, 13]: 1717.4
Δ volume [1, 13]: 1572.6
% of baseline [1, 13]: 108.3%
Δ % [1, 13]: 8.3%
weight [1, 11]: 21.04 and 22.19 and 19.81 and 20.11
Δ weight [1, 11]: 1.4 (2×) and 2.2 and 1.2
volume [1, 11]: 2185 and 1918 and 1519 and 2426
Δ volume [1, 11]: 2043.7 and 1763.0 and 1357.1 and 2257.1
% of baseline [1, 11]: 106.9% and 111.2% and 107.7% and 106.4%
Δ % [1, 11]: 6.9% and 11.2% and 7.7% and 6.4%
mice died ([1]; custirsen 40 mg/kg group, day 34): one
injections given before treatment was stopped due to toxicity ([1]; custirsen 40 mg/kg, both groups (5 consecutive + 2 on the next week)): 7 injections
tumor growth inhibition by the end of the study ([1]; custirsen 40 mg/kg, either alone or in combination): significantly inhibited tumor growth
time of peak of prolonged coagulation parameters after dose ([2]; human, in vivo): around 48 hours
coagulation parameters (PTT and PT) ([2]; most subjects, starting a few hours after the first loading dose): Slightly prolonged
AEs related to custirsen ([2]; multiple 640 mg doses, after the first infusion): 93 AEs
deaths or other SAEs ([2]; single and repeated doses of 640 mg custirsen, healthy volunteers): No deaths or other SAEs were reported; also recorded: no SAEs
cancer condition of patients [3]: improves
cancer condition of patients [4]: improves
cancer condition of patients [5]: improves
chills, patients [6]: 35%
fever, patients [6]: 50%
occurrence of grade 3/4 hepatic toxicity [6]: rare
severity of fever and chills/rigors [6]: usually mild (grade 1-2)
time of appearance of fever and chills/rigors after the infusion [6]: 4 to 8 h
grade-4 liver toxicity [7]: no reports
incidence of elevated liver function tests (ELFTs) [7]: higher incidence
incidence of the most common adverse events (fatigue, chills, nausea, pyrexia, etc.) [8]: more than 20 % of the patients
occurrence of grade 3/4 renal toxicity [8]: rare
